How the values were obtained:
Experiment in all cases: Kinome-wide inhibition profiling
Format in all cases: biochemical
[1] = biological target: T1, RSK1 (Homo sapiens, UniProt Q15418)
T1 construct: purchased Reaction Biology Corp
Description: (§1) In vitro CDK12/cyclinK assays for all compounds and in vitro kinome-wide inhibition profiling of 30d at 10 μM were performed by a CRO company (Reaction Biology Corp., San Diego, CA, USA).

[2] = biological target: T2, DAPK1 (Homo sapiens, UniProt P53355)
T2 construct: purchased Reaction Biology Corp
T2 sequence (P53355 whole entry): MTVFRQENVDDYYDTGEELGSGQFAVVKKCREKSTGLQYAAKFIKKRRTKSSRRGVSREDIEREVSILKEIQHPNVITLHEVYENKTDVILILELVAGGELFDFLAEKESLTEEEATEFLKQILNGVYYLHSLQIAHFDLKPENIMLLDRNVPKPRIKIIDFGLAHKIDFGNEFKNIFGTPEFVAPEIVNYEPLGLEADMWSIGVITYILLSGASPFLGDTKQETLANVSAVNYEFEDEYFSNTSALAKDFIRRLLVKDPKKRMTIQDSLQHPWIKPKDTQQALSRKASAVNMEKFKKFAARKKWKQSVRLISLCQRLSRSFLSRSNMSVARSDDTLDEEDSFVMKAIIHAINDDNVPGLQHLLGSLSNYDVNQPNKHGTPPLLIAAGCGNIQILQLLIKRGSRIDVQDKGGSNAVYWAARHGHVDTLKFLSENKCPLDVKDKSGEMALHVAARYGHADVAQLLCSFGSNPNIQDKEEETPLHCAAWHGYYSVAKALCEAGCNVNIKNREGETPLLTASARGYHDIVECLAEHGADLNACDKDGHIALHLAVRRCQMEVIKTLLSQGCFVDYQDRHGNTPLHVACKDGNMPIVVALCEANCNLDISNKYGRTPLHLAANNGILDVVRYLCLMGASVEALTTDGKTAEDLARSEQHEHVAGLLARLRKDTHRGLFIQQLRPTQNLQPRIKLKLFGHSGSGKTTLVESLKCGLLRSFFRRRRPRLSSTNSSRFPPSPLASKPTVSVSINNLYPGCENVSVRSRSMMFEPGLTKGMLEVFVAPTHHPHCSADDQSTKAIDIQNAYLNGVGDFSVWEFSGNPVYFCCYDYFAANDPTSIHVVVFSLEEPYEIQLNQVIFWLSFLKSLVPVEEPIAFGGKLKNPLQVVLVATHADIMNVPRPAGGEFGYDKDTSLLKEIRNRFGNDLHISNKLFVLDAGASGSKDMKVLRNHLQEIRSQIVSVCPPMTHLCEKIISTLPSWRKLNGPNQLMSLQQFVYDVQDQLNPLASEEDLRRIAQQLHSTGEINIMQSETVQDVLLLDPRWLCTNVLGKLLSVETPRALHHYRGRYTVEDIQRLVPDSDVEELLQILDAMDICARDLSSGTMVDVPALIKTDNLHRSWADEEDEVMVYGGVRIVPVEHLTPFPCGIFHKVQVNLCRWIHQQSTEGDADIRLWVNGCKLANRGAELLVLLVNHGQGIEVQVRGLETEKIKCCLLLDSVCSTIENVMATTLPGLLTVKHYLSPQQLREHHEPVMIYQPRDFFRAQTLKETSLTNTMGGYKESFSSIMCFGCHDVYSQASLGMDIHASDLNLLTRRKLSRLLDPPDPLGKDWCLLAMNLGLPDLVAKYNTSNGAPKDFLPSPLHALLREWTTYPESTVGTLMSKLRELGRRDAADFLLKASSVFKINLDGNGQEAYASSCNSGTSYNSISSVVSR
Description: as §1

[3] = biological target: T3, GRK7 (Homo sapiens, UniProt Q8WTQ7)
T3 construct: purchased Reaction Biology Corp
Description: as §1

[4] = biological target: T4, FES (Homo sapiens, UniProt P07332)
T4 construct: purchased Reaction Biology Corp
Description: as §1

[5] = biological target: T5, GSK3a (Homo sapiens, UniProt P49840)
T5 construct: purchased Reaction Biology Corp
T5 sequence (P49840 whole entry): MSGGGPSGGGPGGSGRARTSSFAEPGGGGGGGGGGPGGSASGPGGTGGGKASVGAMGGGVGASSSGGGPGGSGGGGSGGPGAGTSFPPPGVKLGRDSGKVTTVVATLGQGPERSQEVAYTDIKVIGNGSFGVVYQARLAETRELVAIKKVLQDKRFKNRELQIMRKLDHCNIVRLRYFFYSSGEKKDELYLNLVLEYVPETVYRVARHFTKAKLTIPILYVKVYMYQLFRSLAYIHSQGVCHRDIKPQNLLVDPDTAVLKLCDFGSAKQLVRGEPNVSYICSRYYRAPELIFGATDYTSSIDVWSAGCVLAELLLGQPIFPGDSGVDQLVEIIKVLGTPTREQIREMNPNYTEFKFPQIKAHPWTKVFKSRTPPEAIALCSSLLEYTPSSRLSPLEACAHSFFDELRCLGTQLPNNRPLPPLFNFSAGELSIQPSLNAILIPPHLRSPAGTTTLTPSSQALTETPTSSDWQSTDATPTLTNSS
Description: as §1

[6] = biological target: T6, ROCK2 (Homo sapiens, UniProt O75116)
T6 construct: purchased Reaction Biology Corp
Description: as §1

[7] = biological target: T7, VRK1 (Homo sapiens, UniProt Q99986)
T7 construct: purchased Reaction Biology Corp
Description: as §1

[8] = biological target: T8, PDGFRa (Homo sapiens, UniProt P16234)
T8 construct: purchased Reaction Biology Corp
Description: as §1

[9] = biological target: T9, MINK (Homo sapiens, UniProt Q8N4C8)
T9 construct: purchased Reaction Biology Corp
Description: as §1

[10] = biological target: T10, ITK (Homo sapiens, UniProt Q08881)
T10 construct: purchased Reaction Biology Corp
Description: as §1

[11] = biological target: T11, ROS1 (Homo sapiens, UniProt P08922)
T11 construct: purchased Reaction Biology Corp
Description: as §1

[12] = biological target: T12, PRKG2 (Homo sapiens, UniProt Q13237)
T12 construct: purchased Reaction Biology Corp
Description: as §1

[13] = biological target: T13, RPS6KA5(Kin.Dom.1-N-term) (Homo sapiens, UniProt O75582)
T13 construct: RPS6KA5(Kin.Dom.1-N-term); purchased Reaction Biology Corp
Description: as §1

[14] = biological target: T14, LOK (Homo sapiens, UniProt O94804)
T14 construct: purchased Reaction Biology Corp
Description: as §1

[15] = biological target: T15, DYRK1A (Homo sapiens, UniProt Q13627)
T15 construct: purchased Reaction Biology Corp
Description: as §1

[16] = biological target: T16, PKN2 (Homo sapiens, UniProt Q16513)
T16 construct: purchased Reaction Biology Corp
Description: as §1

[17] = biological target: T17, TAK1 (Homo sapiens, UniProt O43318)
T17 construct: purchased Reaction Biology Corp
Description: as §1

[18] = biological target: T18, EPHA7 (Homo sapiens, UniProt Q15375)
T18 construct: purchased Reaction Biology Corp
Description: as §1

[19] = biological target: T19, BMPR1B (Homo sapiens, UniProt O00238)
T19 construct: purchased Reaction Biology Corp
Description: as §1

[20] = biological target: T20, P38-alpha (Homo sapiens, UniProt Q16539)
T20 construct: purchased Reaction Biology Corp
Description: as §1

[21] = biological target: T21, CSK (Homo sapiens, UniProt P41240)
T21 construct: purchased Reaction Biology Corp
Description: as §1

[22] = biological target: T22, CAMKK1 (Homo sapiens, UniProt Q8N5S9)
T22 construct: purchased Reaction Biology Corp
T22 sequence (Q8N5S9 whole entry): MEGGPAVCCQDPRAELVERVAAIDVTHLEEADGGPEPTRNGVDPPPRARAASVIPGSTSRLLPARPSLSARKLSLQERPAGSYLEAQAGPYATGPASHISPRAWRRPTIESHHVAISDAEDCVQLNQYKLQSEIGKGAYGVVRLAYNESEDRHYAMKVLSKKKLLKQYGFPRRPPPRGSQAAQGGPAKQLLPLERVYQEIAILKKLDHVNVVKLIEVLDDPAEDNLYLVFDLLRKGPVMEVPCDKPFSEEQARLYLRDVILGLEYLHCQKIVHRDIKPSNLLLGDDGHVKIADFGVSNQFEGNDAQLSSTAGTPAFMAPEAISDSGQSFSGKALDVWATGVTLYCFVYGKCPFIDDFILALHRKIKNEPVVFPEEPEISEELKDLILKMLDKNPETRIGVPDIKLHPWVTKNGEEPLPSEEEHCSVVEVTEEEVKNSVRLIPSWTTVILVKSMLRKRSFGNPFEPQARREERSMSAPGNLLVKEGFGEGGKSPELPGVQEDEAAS
Description: as §1

[23] = biological target: T23, HIPK3 (Homo sapiens, UniProt Q9H422)
T23 construct: purchased Reaction Biology Corp
Description: as §1

[24] = biological target: T24, MAPKAPK5 (Homo sapiens, UniProt Q8IW41)
T24 construct: purchased Reaction Biology Corp
Description: as §1

[25] = biological target: T25, TGFBR2 (Homo sapiens, UniProt P37173)
T25 construct: purchased Reaction Biology Corp
Description: as §1

[26] = biological target: T26, AXL (Homo sapiens, UniProt P30530)
T26 construct: purchased Reaction Biology Corp
Description: as §1

[27] = biological target: T27, CAMK1a (Homo sapiens, UniProt Q14012)
T27 construct: purchased Reaction Biology Corp
T27 sequence (Q14012 whole entry): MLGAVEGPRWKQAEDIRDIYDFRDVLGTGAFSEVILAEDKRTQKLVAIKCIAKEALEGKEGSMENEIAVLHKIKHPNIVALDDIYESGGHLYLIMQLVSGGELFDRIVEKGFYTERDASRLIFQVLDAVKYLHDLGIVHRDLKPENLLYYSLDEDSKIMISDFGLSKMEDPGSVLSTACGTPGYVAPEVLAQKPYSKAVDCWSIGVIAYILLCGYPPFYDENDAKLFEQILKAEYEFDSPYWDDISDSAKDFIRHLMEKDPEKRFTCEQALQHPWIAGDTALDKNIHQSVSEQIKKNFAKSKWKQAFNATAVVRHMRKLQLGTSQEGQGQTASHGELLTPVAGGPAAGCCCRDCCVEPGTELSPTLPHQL
Description: as §1

[28] = biological target: T28, GRK4 (Homo sapiens, UniProt P32298)
T28 construct: purchased Reaction Biology Corp
Description: as §1

[29] = biological target: T29, MUSK (Homo sapiens, UniProt O15146)
T29 construct: purchased Reaction Biology Corp
Description: as §1

[30] = biological target: T30, FGFR4 (Homo sapiens, UniProt P22455)
T30 construct: purchased Reaction Biology Corp
Description: as §1

[31] = biological target: T31, PIM1 (Homo sapiens, UniProt P11309)
T31 construct: purchased Reaction Biology Corp
Description: as §1

[32] = biological target: T32, MEKK6 (Homo sapiens, UniProt O95382)
T32 construct: purchased Reaction Biology Corp
T32 sequence (O95382 whole entry): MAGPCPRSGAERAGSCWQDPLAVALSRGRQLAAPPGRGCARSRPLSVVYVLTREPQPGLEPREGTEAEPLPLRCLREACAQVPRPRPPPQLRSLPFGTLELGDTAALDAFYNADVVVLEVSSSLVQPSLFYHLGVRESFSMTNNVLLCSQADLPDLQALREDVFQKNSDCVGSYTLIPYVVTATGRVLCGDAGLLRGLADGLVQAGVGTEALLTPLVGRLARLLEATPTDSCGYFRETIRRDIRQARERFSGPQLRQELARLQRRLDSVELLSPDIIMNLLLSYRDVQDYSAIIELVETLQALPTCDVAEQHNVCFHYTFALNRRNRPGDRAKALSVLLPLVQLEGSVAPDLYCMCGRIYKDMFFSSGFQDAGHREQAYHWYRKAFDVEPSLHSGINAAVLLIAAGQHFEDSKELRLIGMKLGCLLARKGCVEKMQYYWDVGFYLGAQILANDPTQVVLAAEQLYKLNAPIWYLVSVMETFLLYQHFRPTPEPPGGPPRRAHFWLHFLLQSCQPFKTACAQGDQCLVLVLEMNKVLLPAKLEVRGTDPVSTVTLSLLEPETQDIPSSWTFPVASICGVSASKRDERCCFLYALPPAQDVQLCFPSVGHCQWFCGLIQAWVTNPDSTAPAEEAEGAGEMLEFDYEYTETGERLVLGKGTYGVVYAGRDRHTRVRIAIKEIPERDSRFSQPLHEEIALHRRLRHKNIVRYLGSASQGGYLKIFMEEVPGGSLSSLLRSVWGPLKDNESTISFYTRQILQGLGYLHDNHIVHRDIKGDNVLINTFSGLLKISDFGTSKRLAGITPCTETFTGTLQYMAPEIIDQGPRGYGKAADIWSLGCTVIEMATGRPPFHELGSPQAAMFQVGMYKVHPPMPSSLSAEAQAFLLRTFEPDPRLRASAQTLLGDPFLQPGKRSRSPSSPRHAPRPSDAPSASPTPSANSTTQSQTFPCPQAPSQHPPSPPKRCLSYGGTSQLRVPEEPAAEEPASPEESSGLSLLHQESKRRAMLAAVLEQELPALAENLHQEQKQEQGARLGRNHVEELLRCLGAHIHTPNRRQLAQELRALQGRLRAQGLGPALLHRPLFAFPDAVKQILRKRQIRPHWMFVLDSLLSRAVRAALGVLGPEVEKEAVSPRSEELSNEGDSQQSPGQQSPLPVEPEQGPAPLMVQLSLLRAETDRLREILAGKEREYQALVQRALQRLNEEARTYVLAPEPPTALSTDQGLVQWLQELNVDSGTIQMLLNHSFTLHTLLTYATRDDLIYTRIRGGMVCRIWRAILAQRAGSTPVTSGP
Description: as §1

[33] = biological target: T33, AurkB (Homo sapiens, UniProt Q96GD4)
T33 construct: purchased Reaction Biology Corp
Description: as §1

[34] = biological target: T34, CAMK1g (Homo sapiens, UniProt Q96NX5)
T34 construct: purchased Reaction Biology Corp
Description: as §1

[35] = biological target: T35, p70S6Kb/RPS6KB2 (Homo sapiens, UniProt Q9UBS0)
T35 construct: purchased Reaction Biology Corp
Description: as §1

[36] = biological target: T36, SLK (Homo sapiens, UniProt Q9H2G2)
T36 construct: purchased Reaction Biology Corp
Description: as §1

[37] = biological target: T37, CHEK2 (Homo sapiens, UniProt O96017)
T37 construct: purchased Reaction Biology Corp
Description: as §1

[38] = biological target: T38, CAMKK2 (Homo sapiens, UniProt Q96RR4)
T38 construct: purchased Reaction Biology Corp
Description: as §1

[39] = biological target: T39, NLK (Homo sapiens, UniProt Q9UBE8)
T39 construct: purchased Reaction Biology Corp
Description: as §1

[40] = biological target: T40, BRAF (Homo sapiens, UniProt P15056)
T40 construct: purchased Reaction Biology Corp
Description: as §1

[41] = biological target: T41, RSK3 (Homo sapiens, UniProt Q15349)
T41 construct: purchased Reaction Biology Corp
T41 sequence (Q15349 whole entry): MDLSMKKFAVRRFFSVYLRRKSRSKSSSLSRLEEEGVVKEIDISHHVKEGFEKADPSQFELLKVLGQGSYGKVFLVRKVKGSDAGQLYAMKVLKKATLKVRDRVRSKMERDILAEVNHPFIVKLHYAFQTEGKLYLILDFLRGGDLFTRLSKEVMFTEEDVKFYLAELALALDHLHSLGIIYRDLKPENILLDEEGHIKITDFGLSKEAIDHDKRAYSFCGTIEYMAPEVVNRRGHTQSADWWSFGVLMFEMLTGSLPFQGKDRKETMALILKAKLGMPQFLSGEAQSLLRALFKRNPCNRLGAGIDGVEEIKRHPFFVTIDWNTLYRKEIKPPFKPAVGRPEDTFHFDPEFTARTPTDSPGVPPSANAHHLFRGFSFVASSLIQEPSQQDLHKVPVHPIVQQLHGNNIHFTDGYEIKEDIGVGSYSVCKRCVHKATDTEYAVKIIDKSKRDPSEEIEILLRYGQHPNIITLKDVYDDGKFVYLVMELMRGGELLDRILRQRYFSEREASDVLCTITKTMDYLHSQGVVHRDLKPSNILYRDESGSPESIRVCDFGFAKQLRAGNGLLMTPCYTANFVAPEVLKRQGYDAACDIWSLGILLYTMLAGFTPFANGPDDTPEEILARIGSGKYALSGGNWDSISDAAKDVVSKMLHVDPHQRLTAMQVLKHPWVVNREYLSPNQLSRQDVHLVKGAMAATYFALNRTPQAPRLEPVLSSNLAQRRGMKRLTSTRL
Description: as §1

[42] = biological target: T42, PRKCI (Homo sapiens, UniProt P41743)
T42 construct: purchased Reaction Biology Corp
Description: as §1

[43] = biological target: T43, TLK1 (Homo sapiens, UniProt Q9UKI8)
T43 construct: purchased Reaction Biology Corp
Description: as §1

CCn1cnc2c(NCc3ccc(-c4ccccn4)nc3)nc(-c3ccc(N)nc3)nc21 [Compound 30d, N-([2,2′-Bipyridin]-5-ylmethyl)-2-(6-aminopyridin-3-yl)-9-ethyl-9H-purin-6-amine] showed a remaining activity at 10 µM [1] of 59.1%, a remaining activity at 10 µM [2] of 99.7% and a remaining activity at 10 µM [3] of 49.7%. For the same compound, the remaining activity at 10 µM [4] was 6.4%, the remaining activity at 10 µM [5] was 10.6% and the remaining activity at 10 µM [6] was 92.3%. It also gave a remaining activity at 10 µM [7] of 87.3%, a remaining activity at 10 µM [8] of 52.8% and a remaining activity at 10 µM [9] of 101%. For the same compound, the remaining activity at 10 µM [10] was 81.7%, the remaining activity at 10 µM [11] was 27.8% and the remaining activity at 10 µM [12] was 99.5%. It also gave a remaining activity at 10 µM [13] of 80.5%, a remaining activity at 10 µM [14] of 41.4% and an inhibition at 10 µM [15] greater than 95%. For the same compound, the remaining activity at 10 µM [15] was 3.9%, the remaining activity at 10 µM [16] was 85.8% and the remaining activity at 10 µM [17] was 98.2%. The remaining activity at 10 µM [18] was 31.3%, the remaining activity at 10 µM [19] was 115% and the remaining activity at 10 µM [20] was 84.2%. The remaining activity at 10 µM [21] was 54.8%, the remaining activity at 10 µM [22] was 18.7% and the remaining activity at 10 µM [23] was 94.1%. For the same compound, the remaining activity at 10 µM [24] was 103%, the remaining activity at 10 µM [25] was 94.5% and the remaining activity at 10 µM [26] was 44.2%. For the same compound, the remaining activity at 10 µM [27] was 34%, the remaining activity at 10 µM [28] was 88.3% and the remaining activity at 10 µM [29] was 10.2%. The remaining activity at 10 µM [30] was 87.4%, the remaining activity at 10 µM [31] was 97.8% and the remaining activity at 10 µM [32] was 109%. It also gave a remaining activity at 10 µM [33] of 73%, a remaining activity at 10 µM [34] of 54.3% and a remaining activity at 10 µM [35] of 92.2%. It also gave a remaining activity at 10 µM [36] of 69.5%, a remaining activity at 10 µM [37] of 7.4% and a remaining activity at 10 µM [38] of 10.6%. It also gave a remaining activity at 10 µM [39] of 24.8%, a remaining activity at 10 µM [40] of 60.8% and a remaining activity at 10 µM [41] of 58.1%. For the same compound, the remaining activity at 10 µM [42] was 86.1% and the remaining activity at 10 µM [43] was 67.8%.
